Assay results: paper PMC6609541, “Enterohepatic circulation of glucuronide metabolites of drugs in dog” (Pharmacology Research & Perspectives, 2019)
“And” between values parts separate entries of the source, which are not always exact repeats. Equal values may be shown once. Read-outs that look alike come from different tables or passages of the source. Marks after values point to notes of the source that are not given here.

Tests used:
[1] = Recovery of parent drug and glucuronide metabolites in urine, bile and feces of BDC and intact dogs; assay type: in vivo, beagle dog; settings: for % dose in feces, Parent / % dose in bile, Parent / renal excretion of parent drug / % dose in urine, Parent: 0.5 mg/kg IV; for % dose in feces, Parent / % dose in bile, Parent / % dose in urine, Parent: over 48 hours; for % dose in bile, Parent: 0.5 mg/kg; for renal excretion of parent drug: dog (BDC and intact); for Biliary excretion % of glucuronide / Urinary excretion % of glucuronide: dog; for Biliary excretion % of glucuronide: BDC; for Urinary excretion % of glucuronide: BDC and/or intact
Protocol: (§1) Canagliflozin and DPTQ, both at 0.5 mg/kg, were administered intravenously in 25 mmol/L phosphate buffer (pH 8) containing 10% dimethylacetamide (v/v), 15% ethanol (v/v) via a cephalic vein. Total volume administered was 1 mL/kg. Dogs were housed in stainless steel metabolic cages during the study. Serial blood samples were collected from the jugular vein at 0.08, 0.25, 0.5, 1, 2, 4, 8, 12, 24, 36 and 48‐hours post‐dose with collection tubes containing anticoagulant K3‐EDTA. Plasma was obtained by centrifugation at 1600g for 10 minutes. Cumulative urine samples were collected between 0‐12, 12‐24, 24‐36 and 36‐48 hours and feces were collected between 0‐24 and 24‐48 hours in both intact and BDC dogs. Bile samples were collected between 0‐12, 12‐24, 24‐36, 36‐48 hours in BDC dogs. The weights of all samples except blood and plasma were recorded. All the samples were stored at −70°C until analysis by liquid chromatography tandem‐mass spectrometry (LC‐MS/MS) was performed.
Aliquots of plasma, urine, bile or feces homogenate (50 µL) were incubated with equal volume of 0.2 mol/L sodium acetate buffer (pH 5.0), and 15 μL of β‐glucuronidase (>85 000 units/mL) in a 37°C water bath overnight. The samples were extracted for LC‐MS/MS after the hydrolysis was performed. […] The concentration of O‐glucuronides was determined by subtracting the concentration from the aliquot without treatment of β‐glucuronidase from the one with enzyme treatment.
(§2) Canagliflozin and DPTQ in plasma, bile, urine and feces were quantified using LC‐MS/MS. All samples plasma, urine and bile) were mixed with an organic internal standard solution essentially described previously,15 to precipitate protein and centrifuged, and the resulting supernatants were analyzed using AB Sciex API 4000 quadrupole mass spectrometer (Applied Biosystems, Foster City, CA) equipped with a TurboIonSpray interface. The feces samples were homogenized in MeOH:H2O (1:1) and shaken vigorously to obtain slurry. The homogenates then went through the sample extraction along with other matrices. The blank plasma, urine, bile and feces was spiked with internal standard for calibration curve. The pumps were Shimadzu LC‐10AD units with a SCL‐10A controller (Kyoto, Japan), and a Z‐215 liquid handler (Gilson, Middleton, WI) was used as the autosampler. All compounds were chromatographically separated using a Betasil javelin C18 20 × 2.1‐mm 5‐μm HPLC column (Thermo Fisher Scientific, Waltham, MA). The mobile phase consisted of solvent A (1 mmol/L ammonium bicarbonate in water) and solvent B (1 mmol/L ammonium bicarbonate in methanol). Drugs and metabolites were detected in positive ion mode, using selected ion mode: canagliflozin 462.2 → 191.1 m/z, DPTQ 436.2 → 158.9 m/z, and DPTQ‐O‐glucuronide 612.2 → 418.1.

human wild‐type P‐gp = molecular target: T1, human wild‐type P‐gp (Homo sapiens, UniProt P08183); experiment: Bi‐directional transport across MDCKII cells expressing human P‐gp; assay type: in vitro ADME; design: key to Pgp substrate: S, substrate; NS, non‐substrate; settings: for PappA‐B / PappB‐A: 5 µmol/L compound; for P‐gp substrate: P‐gp‐transfected MDCKII cells; for P‐gp substrate / MDCK permeability (passive membrane permeability): in words; for Pgp substrate: classified from net efflux ratio (NER >3.0 = substrate); for Net efflux ratio: uninhibited ratio divided by inhibited ratio, NER >3.0 = P‐gp substrate
T1 construct: host or cells: MDCKII
Protocol: MDCKII cells stably expressing human wild‐type P‐gp were obtained from the Netherlands Cancer Institute Amsterdam, The Netherlands). MDCK cells were maintained and the assay was conducted essentially as described previously.12, 13 Transport was measured in both directions across uninhibited and inhibited cell monolayers using a substrate concentration of 5 μmol/L diluted from a 10 mmol/L DMSO stock solution final DMSO concentration of 0.05%) and a single 60‐min time interval.

[2] = Plasma pharmacokinetics after single intravenous administration in bile duct cannulated (BDC) and intact beagle dogs; assay type: in vivo, beagle dog; settings: for EHC / AUC(0-inf) / half-life / clearance / AUC / Vd: dog; for EHC: enterohepatic circulation; for AUC(0-inf) / half-life / clearance / AUC / Vd: male, beagle, plasma, iv; for clearance: plasma clearance; for AUC: mean ± SD n=4, read-out: AUC0‐48 hr
Protocol: Male beagle dogs were obtained from Charles River Laboratories Inc (Wilmington, MA). Pharmacokinetic (PK) studies in intact dogs were conducted at Covance (Greenfield, IN), while bile duct cannulation surgery and PK studies were conducted in these dogs at Covance (Madison, WI). Dogs (weight: 9‐12 kg), were acclimated prior to study initiation according to Standard Operating Procedures (Covance). All intravenous compound administration was by an intravenous catheter implanted in the cephalic vein. Access to food and water was allowed ad libitum. All animal procedures were approved by the Institutional Animal Care and Use Committee at Covance. Replacement bile was not administered during the study since collection of bile was scheduled for a period of 48 hours, replacement is typically administered for studies lasting more than 60 hours.
as §1
Noncompartmental pharmacokinetic parameters were calculated using Watson version 7.4 (Thermo Scientific, Waltham, MA). Statistical significance of differences for pharmacokinetic parameters between two groups was examined with Student's t test using Sigmaplot 12.5 (Systat Software Inc, San Jose, CA).
as §2

[3] = system: cryopreserved dog hepatocytes; experiment: Hepatocyte intrinsic clearance with and without ABT (dog); assay type: in vitro ADME; settings: for percentage of the metabolism not inhibited by ABT / % of inhibition by ABT: dog hepatocytes; for % of inhibition by ABT: inhibition of Clint by 1 mmol/L ABT (fm by P450); for Hepatic fm by UGT: dog, in hepatocytes
Protocol: (§3) The intrinsic clearance was determined in cryopreserved dog and human hepatocytes essentially as described previously.4 The assay incubation contained 0.3 µmol/L compound and hepatocytes at a concentration of 10^6 cells/mL, with and without 30 minutes pre‐incubation of 1 mmol/L ABT. Intrinsic clearance measurement was initiated by the addition of compound and the incubation quenched at 0.6, 15, 30, 60 and 90 minutes for DPTQ, and at 0.6, 15, 30, 60, 120 and 240 minutes by addition of acetonitrile with 0.1% formic acid. Samples were centrifuged at 3500 g for 10 minutes and the supernatant was analyzed to quantify parent compound loss and the intrinsic clearance values (μL/min/10^6 cells) were calculated using following equation for incubations with and without ABT. CLint=-kdep×incubation volume/10^6cells
(§4) In which the depletion rate constant (k dep) is the slope determined using linear regression from the log transformed percentage remaining on the y‐axis vs time on the x‐axis (min^− ^1). The fraction of metabolism (fm) by P450 was determined by the measurement of the percentage of inhibition of Clint by ABT.

[4] = as above; assay type: in vitro ADME; settings: cryopreserved dog hepatocytes, dog hepatocytes, 0.3 µmol/L compound
Protocol: as §3, §4

[5] = MDR1‐MDCKII_inhibitor (2.5 µmol/L P‐gp inhibitor LSN335984)
[6] = 0.5 mg/kg, BDC dog, 0.5 mg/kg IV bolus
[7] = 0.5 mg/kg, BDC dog, 0.5 mg/kg IV bolus, read-out: V dss
[8] = 0.5 mg/kg, intact dog, 0.5 mg/kg IV bolus
[9] = with 1 mmol/L ABT, 30 minutes pre-incubation, 1 mmol/L ABT pre‐incubation 30 minutes, read-out: Clint with ABT
[10] = 10^6 cells/mL, read-out: Clint without ABT

T1 sequence (P08183 whole entry): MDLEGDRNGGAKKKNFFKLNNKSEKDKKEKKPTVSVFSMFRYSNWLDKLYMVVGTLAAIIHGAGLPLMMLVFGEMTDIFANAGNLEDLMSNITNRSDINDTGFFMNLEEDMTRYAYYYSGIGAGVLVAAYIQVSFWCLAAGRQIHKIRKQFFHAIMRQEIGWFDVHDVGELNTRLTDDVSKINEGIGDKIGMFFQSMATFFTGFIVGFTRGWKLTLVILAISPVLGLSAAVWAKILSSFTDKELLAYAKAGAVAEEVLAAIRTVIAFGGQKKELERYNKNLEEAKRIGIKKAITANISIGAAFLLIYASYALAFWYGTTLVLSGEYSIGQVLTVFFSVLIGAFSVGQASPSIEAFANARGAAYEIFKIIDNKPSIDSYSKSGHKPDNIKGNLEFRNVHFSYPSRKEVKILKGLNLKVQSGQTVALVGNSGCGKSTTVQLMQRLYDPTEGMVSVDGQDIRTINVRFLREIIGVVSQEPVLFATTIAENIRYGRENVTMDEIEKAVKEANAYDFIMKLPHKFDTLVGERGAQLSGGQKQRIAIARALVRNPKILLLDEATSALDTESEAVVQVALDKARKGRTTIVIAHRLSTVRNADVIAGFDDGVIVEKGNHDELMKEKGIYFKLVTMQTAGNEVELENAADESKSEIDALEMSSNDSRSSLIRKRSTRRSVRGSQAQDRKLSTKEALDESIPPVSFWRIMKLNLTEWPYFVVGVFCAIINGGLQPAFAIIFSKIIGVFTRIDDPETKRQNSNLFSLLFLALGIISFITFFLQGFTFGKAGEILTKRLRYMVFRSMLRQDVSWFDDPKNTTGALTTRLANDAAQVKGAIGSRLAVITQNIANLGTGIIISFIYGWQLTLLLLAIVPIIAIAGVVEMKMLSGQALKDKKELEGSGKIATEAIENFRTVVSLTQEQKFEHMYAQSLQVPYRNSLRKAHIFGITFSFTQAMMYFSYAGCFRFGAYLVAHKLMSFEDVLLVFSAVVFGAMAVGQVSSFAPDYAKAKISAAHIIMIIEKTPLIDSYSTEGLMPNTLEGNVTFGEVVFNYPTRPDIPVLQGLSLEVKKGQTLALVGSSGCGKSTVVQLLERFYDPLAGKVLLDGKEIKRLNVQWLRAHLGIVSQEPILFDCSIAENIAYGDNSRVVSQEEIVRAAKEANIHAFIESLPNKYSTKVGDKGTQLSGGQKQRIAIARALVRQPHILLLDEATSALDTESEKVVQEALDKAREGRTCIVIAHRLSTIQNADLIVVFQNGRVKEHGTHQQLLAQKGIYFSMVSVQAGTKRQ

| Structure (SMILES) | % dose in feces, Parent ([1]; BDC dog) | % dose in bile, Parent ([1]; BDC dog) | renal excretion of parent drug [1] | Biliary excretion % of glucuronide [1] | Urinary excretion % of glucuronide [1] | % dose in feces, Parent ([1]; intact dog) | % dose in urine, Parent ([1]; intact dog) | PappB‐A/PappA‐B (human wild‐type P‐gp; MDR1‐MDCKII_control) | PappA‐B (human wild‐type P‐gp; MDR1‐MDCKII_control) | PappB‐A (human wild‐type P‐gp; MDR1‐MDCKII_control) | PappB‐A/PappA‐B (human wild‐type P‐gp; MDR1‐MDCKII_inhibitor) | PappA‐B (human wild‐type P‐gp; [5]) | PappB‐A (human wild‐type P‐gp; [5]) | P‐gp substrate (human wild‐type P‐gp) | Pgp substrate (human wild‐type P‐gp) | MDCK permeability (passive membrane permeability) (human wild‐type P‐gp) | EHC [2] | AUC(0-inf) [2, 6] | half-life [2, 6] | clearance [2, 6] | other results |
| --- | --- | --- | --- | --- | --- | --- | --- | --- | --- | --- | --- | --- | --- | --- | --- | --- | --- | --- | --- | --- | --- |
| C[C@H]1c2cccc(CC(C)(C)O)c2C[C@H](CO)N1C(=O)Cc1c(Cl)cccc1Cl [DPTQ, 2‐(2,6‐dichlorophenyl)‐1‐((1S,3R)‐5‐(2‐hydroxy‐2‐methylpropyl)‐3‐(hydroxymethyl)‐1‐methyl‐3,4‐dihydroisoquinolin‐2(1H)‐yl)ethan‐1‐one] | 2.48 ± 4.8 % dose | 8.91 % dose and 8.91 ± 8.9 % dose | < 1 % of dose | Moderate (moderate 30%‐70%) | Low (Low 0%‐30%) | 13.5 ± 5.8 ^a % dose | 0.64 ± 1.1 % dose | 1.5 | 43.0 ± 4.5 10^–6cm/s | 62.6 ± 2.6 10^–6cm/s | 1.1 | 48.9 ± 5.9 10^–6cm/s | 53.5 ± 0.4 10^–6cm/s | not a P‐gp substrate and no | NS | high and High | Yes | 5.89 ± 3.3 µM·h | 2.5 ± 2.3 h | 4.43 ± 3.1 mL/min/kg | CL0‐48 h ([2]; intact dog, 0.5 mg/kg IV bolus, AUCinf not extrapolated, CL from AUC0‐48 hours, 0.5 mg/kg): 2.73 mL/min/kg and 2.73 ± 1.2 mL/min/kg; AUC [2, 6]: 5.89 ± 3.3 µM·h; Vd [2, 7]: 0.33 ± 0.07 L/kg; AUC [2, 8]: 7.94 ± 2.5 µM·h; Vd ([2]; 0.5 mg/kg, intact dog, 0.5 mg/kg IV bolus, AUCinf not extrapolated, read-out: V dss 0‐48 hr): 1.48 ± 0.25 L/kg; percentage of the metabolism not inhibited by ABT [3]: 53.5%; % of inhibition by ABT [3]: 46.5% and 46.5 ± 6.6%; Hepatic fm by UGT [3]: Moderate (moderate 30%‐70%); hepatocyte CLint at 0.3 µmol/L [4, 9]: 18.3 ± 5.9 µL/min/1e6 cells; hepatocyte CLint at 0.3 µmol/L [4, 10]: 38.6 ± 8.5 µL/min/1e6 cells |
| Cc1ccc([C@@H]2O[C@H](CO)[C@@H](O)[C@H](O)[C@H]2O)cc1Cc1ccc(-c2ccc(F)cc2)s1 [Canagliflozin] | 3.3 ± 0.7 % dose | 4.66 ± 1.4 % dose | < 1 % of dose | Low (Low 0%‐30%) | Low (Low 0%‐30%) | 2.25 ± 1.3 % dose | 0.27 ± 0.15 % dose | 22 | 4.0 ± 1.8 10^–6cm/s | 89.2 ± 8.2 10^–6cm/s | 1.3 | 10.8 ± 1.4 10^–6cm/s | 14.1 ± 0.1 10^–6cm/s | yes | S | Moderate | No | 16.4 ± 5.9 µM·h | 10.9 ± 1.8 h | 1.32 ± 0.5 mL/min/kg | % dose in urine, Parent ([1]; BDC dog, ND = below quantitative limit 1 ng/mL): 0.05 ± 0.08 % dose; % dose in bile, Parent ([1]; BDC dog, listed as canagliflozin): 4.66 % dose; P‐gp substrate (human wild‐type P‐gp; listed as canagliflozin): P‐gp substrate; MDCK permeability (passive membrane permeability) (human wild‐type P‐gp; listed as canagliflozin): moderate; Net efflux ratio (human wild‐type P‐gp): 17.1; Net efflux ratio (human wild‐type P‐gp; listed as canagliflozin): > 3; AUC [2, 6]: 15.7 ± 5.4 µM·h; Vd [2, 7]: 0.87 ± 0.28 L/kg; AUC(0-inf) [2, 8]: 21.2 ± 3.9 µM·h; half-life [2, 8]: 8.05 ± 0.62 h; clearance [2, 8]: 0.93 ± 0.18 mL/min/kg; AUC [2, 8]: 20.7 ± 3.7 µM·h; Vd ([2]; 0.5 mg/kg, intact dog, 0.5 mg/kg IV bolus, read-out: V dss): 0.72 ± 0.13 L/kg; percentage of the metabolism not inhibited by ABT [3]: 87.3%; % of inhibition by ABT [3]: 12.7 ± 14.1%; % of inhibition by ABT ([3]; listed as canagliflozin): 12.7%; Hepatic fm by UGT [3]: Low (Low 0%‐30%); hepatocyte CLint at 0.3 µmol/L [4, 9]: 6 ± 3.3 µL/min/1e6 cells; hepatocyte CLint at 0.3 µmol/L [4, 10]: 6.5 ± 3.6 µL/min/1e6 cells |
